Among the data in patent US20260325533A1, “CDK INHIBITOR COMPOUNDS” (ALEKSIA THERAPEUTICS, INC., priority 2023, published 2026) are IC50 values, retold here.

Format in all cases: biochemical
One experiment concerns the target CDK2/CCNE1 (Homo sapiens, UniProt P24941). The experiment in a line: CDK2 homogeneous time-resolved fluorescence (HTRF) kinase assay. The conditions noted are these: CDK2/CCNE. In short, it runs like this:
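TR-FRET read-out (665 nm, or 665/615 ratio) of Eu-antibody detection of phospho-4E-BP1 (Thr37/46) ULight peptide. Enzyme 3 nM, ATP 1 mM, peptide 50 nM, 1% DMSO; 60 min reaction at 23 °C after 20 min compound preincubation. IC50 from 11-point half-log titrations, top typically 10 μM.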

Another experiment concerns the target CDK4/CCND3 (Homo sapiens, UniProt P11802). Description: CDK4 homogeneous time-resolved fluorescence (HTRF) kinase assay. As to conditions: CDK4/CCND. In short, it runs like this: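 HTRF kinase assay, CDK4/CCND3 1.5 nM, ATP 1 mM, ULight-4E-BP1 peptide 50 nM, 23 °C, 60 min reaction after 20 min preincubation. Eu-anti-pThr37/46 antibody detection. 11-pt half-log curves from 10 μM → IC50.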
In general terms: In TR-FRET formats the signal depends on donor and acceptor labels being close together.

For the next experiment, the target named is CDK6/CCND1 (Homo sapiens, UniProt Q00534). The experiment in a line: CDK6 homogeneous time-resolved fluorescence (HTRF) kinase assay. The conditions noted are these: CDK6/CCND, 1 mM ATP. An outline of the steps: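 Recombinant CDK6/CCND1 (1 nM final) was preincubated with compound for 20 min at 23 °C in HEPES buffer with MgCl2, EGTA, DTT and Tween 20. Kinase reaction then ran 60 min at 23 °C with 1 mM ATP and 50 nM ULight-4E-BP1 (Thr37/46) peptide, and was stopped with EDTA.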
CDK6/CCND1, sequence (Q00534 whole entry): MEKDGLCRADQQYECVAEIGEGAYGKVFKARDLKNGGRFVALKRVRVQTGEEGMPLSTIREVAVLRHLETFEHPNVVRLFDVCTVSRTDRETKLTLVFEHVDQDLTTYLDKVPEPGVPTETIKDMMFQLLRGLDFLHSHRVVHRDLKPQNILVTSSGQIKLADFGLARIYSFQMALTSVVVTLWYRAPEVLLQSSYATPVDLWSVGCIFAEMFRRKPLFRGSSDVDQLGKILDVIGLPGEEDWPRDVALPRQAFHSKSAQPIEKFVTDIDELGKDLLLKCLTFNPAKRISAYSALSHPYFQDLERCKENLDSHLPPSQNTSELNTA
CDK6/CCND1, sequence (P24385 whole entry partner): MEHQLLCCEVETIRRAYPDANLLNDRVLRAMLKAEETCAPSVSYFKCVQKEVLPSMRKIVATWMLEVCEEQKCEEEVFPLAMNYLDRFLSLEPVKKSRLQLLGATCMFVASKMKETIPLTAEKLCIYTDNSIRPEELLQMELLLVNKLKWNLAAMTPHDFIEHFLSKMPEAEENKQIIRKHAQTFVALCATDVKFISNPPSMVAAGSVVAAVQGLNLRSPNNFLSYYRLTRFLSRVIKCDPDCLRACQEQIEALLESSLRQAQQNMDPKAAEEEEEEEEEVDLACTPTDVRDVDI

Another experiment deals with CDK1/CCNB1 (Homo sapiens, UniProt P06493). The experiment in a line: CDK1 homogeneous time-resolved fluorescence (HTRF) kinase assay. As to conditions: CDK1/CCNB. An outline of the steps: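 Read-out: TR-FRET (Eu anti-phospho-4E-BP1 Thr37/46 antibody, 2 nM; 665 nm or 665/615 ratio) after 60 min phosphorylation of 50 nM ULight-peptide by 0.5 nM CDK1/CCNB1 at 1 mM ATP, 23 °C. Compound preincubated 20 min with enzyme; 1% DMSO.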
CDK1/CCNB1, sequence (P06493 whole entry): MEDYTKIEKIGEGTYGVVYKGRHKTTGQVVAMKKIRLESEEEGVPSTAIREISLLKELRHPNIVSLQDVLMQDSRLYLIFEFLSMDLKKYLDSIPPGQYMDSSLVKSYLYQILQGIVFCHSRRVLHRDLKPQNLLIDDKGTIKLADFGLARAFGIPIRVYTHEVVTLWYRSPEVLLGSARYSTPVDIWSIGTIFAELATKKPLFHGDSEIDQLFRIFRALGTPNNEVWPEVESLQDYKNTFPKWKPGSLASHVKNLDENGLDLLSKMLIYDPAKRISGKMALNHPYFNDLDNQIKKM
CDK1/CCNB1, sequence (P14635 whole entry partner): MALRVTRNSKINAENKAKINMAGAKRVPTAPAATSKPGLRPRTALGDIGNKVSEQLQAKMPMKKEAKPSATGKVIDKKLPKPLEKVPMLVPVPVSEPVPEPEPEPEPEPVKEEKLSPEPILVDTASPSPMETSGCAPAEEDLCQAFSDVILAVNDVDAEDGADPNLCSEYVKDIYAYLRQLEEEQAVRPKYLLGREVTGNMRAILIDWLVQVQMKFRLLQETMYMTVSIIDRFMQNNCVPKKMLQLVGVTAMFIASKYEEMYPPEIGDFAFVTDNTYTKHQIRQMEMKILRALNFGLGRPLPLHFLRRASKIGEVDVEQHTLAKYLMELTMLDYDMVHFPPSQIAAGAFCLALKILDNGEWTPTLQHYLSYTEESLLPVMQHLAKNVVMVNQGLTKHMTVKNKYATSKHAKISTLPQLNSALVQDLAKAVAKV

Where [1] appears, read: 25-250 nM, read-out: CDK2/CCNE IC50, 25-250 nM.
Where [2] appears, read: >250 nM, read-out: CDK4/CCND IC50, >250 nM.
Where [3] appears, read: >250 nM, read-out: CDK6/CCND IC50, >250 nM.
[4] abbreviates: >250 nM, read-out: CDK1/CCNB IC50 >250 nM.
[5] abbreviates: <25 nM, read-out: CDK2/CCNE IC50, <25 nM.
Setting [6] is: 25-250 nM, read-out: CDK4/CCND IC50, 25-250 nM.
The mark [7] stands for this setting: 25-250 nM, read-out: CDK6/CCND IC50, 25-250 nM.
The mark [8] stands for this setting: 25-250 nM, read-out: CDK1/CCNB IC50, 25-250 nM.

Read-outs that look alike come from different tables or passages of the source.

CDK4/CCND3, sequence (P11802 whole entry): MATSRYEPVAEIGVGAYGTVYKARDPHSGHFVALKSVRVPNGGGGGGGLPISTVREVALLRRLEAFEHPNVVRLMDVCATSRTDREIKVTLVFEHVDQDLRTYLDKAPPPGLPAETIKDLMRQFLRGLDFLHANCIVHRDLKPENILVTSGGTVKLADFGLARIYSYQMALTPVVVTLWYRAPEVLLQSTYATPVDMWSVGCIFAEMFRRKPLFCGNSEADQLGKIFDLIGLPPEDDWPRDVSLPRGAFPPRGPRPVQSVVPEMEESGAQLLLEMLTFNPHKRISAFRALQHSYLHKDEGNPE
CDK4/CCND3, sequence (P30281 whole entry partner): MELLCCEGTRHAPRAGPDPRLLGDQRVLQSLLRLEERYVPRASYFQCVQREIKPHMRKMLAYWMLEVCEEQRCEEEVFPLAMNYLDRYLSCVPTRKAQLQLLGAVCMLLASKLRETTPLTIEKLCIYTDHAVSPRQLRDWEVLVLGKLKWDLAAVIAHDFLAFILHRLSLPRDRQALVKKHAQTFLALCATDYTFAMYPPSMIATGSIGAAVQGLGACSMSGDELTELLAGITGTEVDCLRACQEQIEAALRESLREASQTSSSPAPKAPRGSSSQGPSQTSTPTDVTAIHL

Regarding `CS(=O)(=O)c1ccc(Nc2cc3c(C#Cc4cc(C(=O)O)c(N)cc4F)nccc3cn2)cc1` [Ex 913, 2-amino-4-fluoro-5-((7-((4-(methylsulfonyl)phenyl)amino)-2,6-naphthyridin-1-yl)ethynyl)benzoic acid], the IC50 was 25 to 250 nM at CDK2/CCNE1 (setting [1]), over 250 nM on CDK4/CCND3 (setting [2]), over 250 nM at CDK6/CCND1 (setting [3]) and over 250 nM at CDK1/CCNB1 (setting [4]).
Take `Cc1c(-c2nccc3cnc(Nc4ccc5c(c4)CCCS5(=O)=O)cc23)ccc2c1cnn2CC(C)(C)O` [Ex 914, 6-((5-(1-(2-hydroxy-2-methylpropyl)-4-methyl-1H-indazol-5-yl)-2,6-naphthyridin-3-yl)amino)thiochromane 1,1-dioxide]: the IC50 was under 25 nM on CDK2/CCNE1 (setting [5]), 25 to 250 nM on CDK4/CCND3 (setting [6]), 25 to 250 nM at CDK6/CCND1 (setting [7]) and over 250 nM at CDK1/CCNB1 (setting [4]).
`Cc1c(-c2nccc3cnc(Nc4ccc5c(c4)CCS5(=O)=O)cc23)ccc2c1cnn2CC(C)(C)O` [Ex 915, 5-((5-(1-(2-hydroxy-2-methylpropyl)-4-methyl-1H-indazol-5-yl)-2,6-naphthyridin-3-yl)amino)-2,3-dihydrobenzo[b]thiophene 1,1-dioxide]: the IC50 at CDK2/CCNE1 (setting [5]) is under 25 nM; on CDK4/CCND3 (setting [6]) it was 25 to 250 nM; at CDK6/CCND1 (setting [7]), 25 to 250 nM; on CDK1/CCNB1 (setting [4]) it was over 250 nM.
`Cc1c(-c2nccc3cnc(Nc4cccc5ccccc45)cc23)ccc2c1cnn2CC(C)(C)O` [Ex 916, 2-methyl-1-(4-methyl-5-(7-(naphthalen-1-ylamino)-2,6-naphthyridin-1-yl)-1H-indazol-1-yl)propan-2-ol]: the IC50 on CDK2/CCNE1 (setting [1]) was 25 to 250 nM; on CDK4/CCND3 (setting [2]), over 250 nM; at CDK6/CCND1 (setting [3]), over 250 nM; on CDK1/CCNB1 (setting [4]) it was over 250 nM.
On to `N#Cc1ccc(C#Cc2nccc3cnc(Nc4cnc(O)c(N5CCNCC5)c4)cc23)cc1` [Ex 917, 4-((7-((6-hydroxy-5-(piperazin-1-yl)pyridin-3-yl)amino)-2,6-naphthyridin-1-yl)ethynyl)benzonitrile], for which the IC50 on CDK2/CCNE1 (setting [1]) was 25 to 250 nM; at CDK4/CCND3 (setting [2]), over 250 nM; on CDK6/CCND1 (setting [3]), over 250 nM; on CDK1/CCNB1 (setting [4]), over 250 nM.
Consider `Cc1c(-c2nccc3cnc(Nc4ccc(S(C)(=O)=O)c(N5CCN(CCO)CC5)c4)cc23)ccc2c1cnn2CC(C)(C)O` [Ex 919, 1-(5-(7-((3-(4-(2-hydroxyethyl)piperazin-1-yl)-4-(methylsulfonyl)phenyl)amino)-2,6-naphthyridin-1-yl)-4-methyl-1H-indazol-1-yl)-2-methylpropan-2-ol], for which the IC50 is 25 to 250 nM at CDK2/CCNE1 (setting [1]), over 250 nM at CDK4/CCND3 (setting [2]), over 250 nM at CDK6/CCND1 (setting [3]) and over 250 nM on CDK1/CCNB1 (setting [4]).
For `N#Cc1ccc(C#Cc2nccc3cnc(Nc4cnc(O)c(N5CCN(CCO)CC5)c4)cc23)cc1` [Ex 920, 4-((7-((6-hydroxy-5-(4-(2-hydroxyethyl)piperazin-1-yl)pyridin-3-yl)amino)-2,6-naphthyridin-1-yl)ethynyl)benzonitrile], the IC50 at CDK2/CCNE1 (setting [1]) is 25 to 250 nM; on CDK4/CCND3 (setting [2]), over 250 nM; at CDK6/CCND1 (setting [3]) it was over 250 nM; at CDK1/CCNB1 (setting [4]), over 250 nM.
With `Cc1c(-c2nccc3cnc(Nc4ccc(S(N)(=O)=O)cc4)cc23)ccc2c1cnn2CC(C)(C)O` [Ex 921, 4-((5-(1-(2-hydroxy-2-methylpropyl)-4-methyl-1H-indazol-5-yl)-2,6-naphthyridin-3-yl)amino)benzenesulfonamide], the IC50 on CDK2/CCNE1 (setting [5]) was under 25 nM; on CDK4/CCND3 (setting [6]), 25 to 250 nM; at CDK6/CCND1 (setting [7]), 25 to 250 nM; at CDK1/CCNB1 (setting [8]), 25 to 250 nM.
Turning to `Cc1c(-c2nccc3cnc(Nc4ccc(S(=O)(=O)N5CCOCC5)cc4)cc23)ccc2c1cnn2CC(C)(C)O` [Ex 922, 2-methyl-1-(4-methyl-5-(7-((4-(morpholinosulfonyl)phenyl)amino)-2,6-naphthyridin-1-yl)-1H-indazol-1-yl)propan-2-ol], the IC50 at CDK2/CCNE1 (setting [5]) is under 25 nM; at CDK4/CCND3 (setting [6]) it was 25 to 250 nM; at CDK6/CCND1 (setting [7]), 25 to 250 nM; at CDK1/CCNB1 (setting [4]) it was over 250 nM.
Take `Cc1c(-c2nccc3cnc(Nc4ccc(S(=O)(=O)N5CCCCC5)cc4)cc23)ccc2c1cnn2CC(C)(C)O` [Ex 923, 2-methyl-1-(4-methyl-5-(7-((4-(piperidin-1-ylsulfonyl)phenyl)amino)-2,6-naphthyridin-1-yl)-1H-indazol-1-yl)propan-2-ol]: the IC50 at CDK2/CCNE1 (setting [1]) was 25 to 250 nM; at CDK4/CCND3 (setting [2]), over 250 nM; on CDK6/CCND1 (setting [3]), over 250 nM; at CDK1/CCNB1 (setting [4]), over 250 nM.
Regarding `Cc1c(-c2nccc3cnc(Nc4ccc(S(=O)(=O)Nc5ccccn5)cc4)cc23)ccc2c1cnn2CC(C)(C)O` [Ex 924, 4-((5-(1-(2-hydroxy-2-methylpropyl)-4-methyl-1H-indazol-5-yl)-2,6-naphthyridin-3-yl)amino)-N-(pyridin-2-yl)benzenesulfonamide], the IC50 at CDK2/CCNE1 (setting [5]) was under 25 nM; on CDK4/CCND3 (setting [6]), 25 to 250 nM; at CDK6/CCND1 (setting [7]) it was 25 to 250 nM; on CDK1/CCNB1 (setting [4]) it was over 250 nM.
With `Cc1c(-c2nccc3cnc(Nc4ccc(S(=O)(=O)O)cc4)cc23)ccc2c1cnn2CC(C)(C)O` [Ex 925, 4-((5-(1-(2-hydroxy-2-methylpropyl)-4-methyl-1H-indazol-5-yl)-2,6-naphthyridin-3-yl)amino)benzenesulfonic acid], the IC50 at CDK2/CCNE1 (setting [1]) is 25 to 250 nM; on CDK4/CCND3 (setting [2]) it was over 250 nM; at CDK6/CCND1 (setting [3]), over 250 nM; at CDK1/CCNB1 (setting [4]), over 250 nM.
Turning to `Cc1cc(C)nc(NS(=O)(=O)c2ccc(Nc3cc4c(-c5ccc6c(cnn6CC(C)(C)O)c5C)nccc4cn3)cc2)n1` [Ex 926, N-(4,6-dimethylpyrimidin-2-yl)-4-((5-(1-(2-hydroxy-2-methylpropyl)-4-methyl-1H-indazol-5-yl)-2,6-naphthyridin-3-yl)amino)benzenesulfonamide], the IC50 on CDK2/CCNE1 (setting [5]) was under 25 nM; on CDK4/CCND3 (setting [2]), over 250 nM; at CDK6/CCND1 (setting [7]) it was 25 to 250 nM; at CDK1/CCNB1 (setting [8]), 25 to 250 nM.
As to `Cc1c(-c2nccc3cnc(Nc4ccc(S(=O)(=O)Nc5ncccn5)cc4)cc23)ccc2c1cnn2CC(C)(C)O` [Ex 927, 4-((5-(1-(2-hydroxy-2-methylpropyl)-4-methyl-1H-indazol-5-yl)-2,6-naphthyridin-3-yl)amino)-N-(pyrimidin-2-yl)benzenesulfonamide], the IC50 on CDK2/CCNE1 (setting [5]) was under 25 nM; at CDK4/CCND3 (setting [2]) it was over 250 nM; at CDK6/CCND1 (setting [3]) it was over 250 nM; at CDK1/CCNB1 (setting [4]), over 250 nM.
`Cc1c(-c2nccc3cnc(Nc4ccc(-n5ccnc5)cc4)cc23)ccc2c1cnn2CC(C)(C)O` [Ex 928, 1-(5-(7-((4-(1H-imidazol-1-yl)phenyl)amino)-2,6-naphthyridin-1-yl)-4-methyl-1H-indazol-1-yl)-2-methylpropan-2-ol]: the IC50 on CDK2/CCNE1 (setting [5]) was under 25 nM; at CDK4/CCND3 (setting [6]), 25 to 250 nM; at CDK6/CCND1 (setting [7]), 25 to 250 nM; on CDK1/CCNB1 (setting [8]), 25 to 250 nM.
As for `Cc1c(-c2nccc3cnc(Nc4cccc(C(=O)Nc5ccccc5)c4)cc23)ccc2c1cnn2CC(C)(C)O` [Ex 929, 3-((5-(1-(2-hydroxy-2-methylpropyl)-4-methyl-1H-indazol-5-yl)-2,6-naphthyridin-3-yl)amino)-N-phenylbenzamide], the IC50 is 25 to 250 nM at CDK2/CCNE1 (setting [1]), over 250 nM at CDK4/CCND3 (setting [2]), over 250 nM on CDK6/CCND1 (setting [3]) and over 250 nM on CDK1/CCNB1 (setting [4]).
For the compound `Cc1c(-c2nccc3cnc(Nc4ccc(S(C)(=O)=O)c(N5CCN(C)CC5)c4)cc23)ccc2c1cnn2CC(C)(C)O` [Ex 931, 2-methyl-1-(4-methyl-5-(7-((3-(4-methylpiperazin-1-yl)-4-(methylsulfonyl)phenyl)amino)-2,6-naphthyridin-1-yl)-1H-indazol-1-yl)propan-2-ol], the IC50 was 25 to 250 nM on CDK2/CCNE1 (setting [1]), over 250 nM at CDK4/CCND3 (setting [2]), over 250 nM at CDK6/CCND1 (setting [3]) and over 250 nM at CDK1/CCNB1 (setting [4]).
Regarding `Cc1c(-c2nccc3cnc(Nc4ccc(=O)n(C)n4)cc23)ccc2c1cnn2CC(C)(C)O` [Ex 932, 6-((5-(1-(2-hydroxy-2-methylpropyl)-4-methyl-1H-indazol-5-yl)-2,6-naphthyridin-3-yl)amino)-2-methylpyridazin-3(2H)-one], the IC50 on CDK2/CCNE1 (setting [5]) was under 25 nM; at CDK4/CCND3 (setting [6]), 25 to 250 nM; at CDK6/CCND1 (setting [3]), over 250 nM; on CDK1/CCNB1 (setting [4]) it was over 250 nM.
